Structures can show the parent of a compound that is named as a salt.
These molecules were tested on MHC-I expression by COLO 205 cells (assay: cells). Conditions: Homo sapiens, COLO 205, 48 h, MHC-I expression, COLO 205 cells, compounds at 35 μM, 48 hours, flow cytometry (W6/32); read-out: Induction Fold.
Type: cell-based, human
Method: A panel of synthetic cannabinoids (Cayman Chemical, #9002891) was tested for MHC class I-inducing capability in COLO 205 cells as described above. COLO 205 cells were treated with the compounds at a concentration of 35 μM and evaluated for cell surface MHC class I expression after 48 hours. Cells were harvested, stained with MHC-I mAb W6/32 (Thermo Fisher). MHC-I expression was determined by flow cytometry.

Row | SMILES | fold induction at 35 µM
1 | COc1ccc(C(=O)c2c(C)n(CCN3CCOCC3)c3cc(Br)ccc23)cc1 [Example 310, [6-bromo-2-methyl-1-[2-(4-morpholinyl)ethyl]-1H-indol-3-yl](4-methoxyphenyl)-methanone] | 1.37
2 | CC(C)[C@H](NC(=O)c1cn(CCCCCF)c2ccccc12)C(N)=O [Example 312, N-[(1S)-1-(aminocarbonyl)-2-methylpropyl]-1-(5-fluoropentyl)-1H-indole-3-carboxamide] | 1.35
3 | CC(C)(NC(=O)c1cn(CCCCCF)c2ncccc12)c1ccccc1 [Example 313, 1-(5-fluoropentyl)-N-(2-phenylpropan-2-yl)-1H-pyrrolo[2,3-b] pyridine-3-carboxamide] | 1.33
4 | O=C(Oc1ccc2ncccc2c1)c1cn(CC2CCCCC2)c2ccccc12 [Example 314, quinolin-6-yl 1-(cyclohexylmethyl)-1H-indole-3-carboxylate] | 1.32
5 | CCCCCn1c2ccccc2c2cc(C(=O)c3cccc4ccccc34)ccc21 [Example 315, naphthalen-1-yl(9-pentyl-9H-carbazol-3-yl)methanone] | 1.32
6 | CC(F)CCCn1cc(C(=O)c2cccc3ccccc23)c2ccccc21 (centres unmarked) [Example 316, (1-(4-fluoropentyl)-1H-indol-3-yl)(naphthalen-1-yl)methanone] | 1.32
7 | CCCC(F)Cn1nc(C(=O)NC(C(N)=O)C(C)C)c2ccccc21 (centres unmarked) [Example 317, N-(1-amino-3-methyl-1-oxobutan-2-yl)-1-(2-fluoropentyl)-1H-indazole-3-carboxamide] | 1.31
8 | O=C(c1ccc2c(c1)c1ccccc1n2CCCCCF)c1cccc2ccccc12 [Example 318, (9-(5-fluoropentyl)-9H-carbazol-3-yl)(naphthalen-1-yl)methanone] | 1.31
9 | COc1ccc(C(=O)c2c(C)n(CCN3CCOCC3)c3cc(I)ccc23)cc1 [Example 320, [6-iodo-2-methyl-1-[2-(4-morpholinyl)ethyl]-1H-indol-3-yl](4-methoxyphenyl)-methanone] | 1.3
10 | CC(C)[C@H](NC(=O)c1cc(-c2ccc(F)cc2)nn1CCCCCF)C(N)=O [Example 321, (S)-N-(1-amino-3-methyl-1-oxobutan-2-yl)-1-(5-fluoropentyl)-3-(4-fluorophenyl)-1H-pyrazole-5-carboxamide] | 1.29
11 | CC(C)(NC(=O)c1nn(CC2CCOCC2)c2ccccc12)c1ccccc1 [Example 322, N-(1-methyl-1-phenylethyl)-1-[(tetrahydro-2H-pyran-4-yl)methyl]-1H-indazole-3-carboxamide] | 1.27
12 | CC(C)[C@H](NC(=O)c1cn(Cc2ccccc2)c2ccccc12)C(N)=O [Example 323, N-[(1S)-1-(aminocarbonyl)-2-methylpropyl]-1-(phenylmethyl)-1H-indole-3-carboxamide] | 1.26
13 | O=C(c1cn(CCCCCF)c2ccccc12)N1CCN(Cc2ccccc2)CC1 [Example 324, (4-benzylpiperazin-1-yl)(1-(5-fluoropentyl)-1H-indol-3-yl)methanone, monohydrochloride] | 1.26
14 | CCCCn1cc(C(=O)c2ccc3ccccc3c2)c2ccccc21 [Example 325, (1-butyl-1H-indol-3-yl)(naphthalen-2-yl)-methanone] | 1.26
15 | CCCCCn1c(C)c(C(=O)c2ccc(C)c3ccccc23)c2ccccc21 [Example 326, (4-methyl-1-naphthalenyl)(2-methyl-1-pentyl-1H-indol-3-yl)-methanone] | 1.25
16 | O=C(Oc1ccc2cnccc2c1)c1cn(CC2CCCCC2)c2ccccc12 [Example 327, isoquinolin-6-yl 1-(cyclohexylmethyl)-1H-indole-3-carboxylate] | 1.24
17 | CCCCCn1cc(C(=O)N[C@H](C(=O)OC)C(C)C)c2ccccc21 [Example 328, N-[(1-pentyl-1H-indol-3-yl)carbonyl]-L-valine, methyl ester] | 1.24
18 | CCCCCn1cc(C(=O)Nc2cccc3ccccc23)c2ccccc21 [Example 329, N-1-naphthalenyl-1-pentyl-1H-indole-3-carboxamide] | 1.23
19 | O=C(Nc1cccc2ccccc12)c1cn(Cc2ccc(F)cc2)c2ccccc12 [Example 330, 1-(4-fluorobenzyl)-N-(naphthalen-1-yl)-1H-indole-3-carboxamide] | 1.23
20 | CCCCCc1cc(O)cc(OCCCCCCCCCCC(=O)NC2CC2)c1 [Example 331, N-cyclopropyl-11-(3-hydroxy-5-pentylphenoxy)-undecanamide] | 1.22
21 | O=C(Oc1ccc2ccccc2c1)c1nn(-c2ccccc2F)c2ccccc12 [Example 332, naphthalen-2-yl 1-(2-fluorophenyl)-1H-indazole-3-carboxylate] | 1.21
22 | C=CCCCn1cc(C(=O)c2ccc(C)c3ccccc23)c2ccccc21 [Example 334, (4-methylnaphthalen-1-yl)(1-(pent-4-en-1-yl)-1H-indol-3-yl)methanone] | 1.2
23 | CCC(F)CCn1nc(C(=O)NC(C(N)=O)C(C)C)c2ccccc21 (centres unmarked) [Example 335, N-(1-amino-3-methyl-1-oxobutan-2-yl)-1-(3-fluoropentyl)-1H-indazole-3-carboxamide] | 1.2
24 | CC(C)(C)n1cc(C(=O)c2cccc3ccccc23)c2ccccc21 [Example 336, (1-(tert-butyl)-1H-indol-3-yl)(naphthalen-1-yl)methanone] | 1.2
25 | O=C(Nc1ccc2ccccc2c1)c1cn(CCCCCF)c2ccccc12 [Example 337, 1-(5-fluoropentyl)-N-(naphthalen-2-yl)-1H-indole-3-carboxamide] | 1.19
26 | CCC(F)CCn1cc(C(=O)Nc2cccc3ccccc23)c2ccccc21 (centres unmarked) [Example 338, 1-(3-fluoropentyl)-N-(naphthalen-1-yl)-1H-indole-3-carboxamide] | 1.19
27 | CC(F)CCCn1cc(C(=O)Nc2cccc3ccccc23)c2ccccc21 (centres unmarked) [Example 339, 1-(4-fluoropentyl)-N-(naphthalen-1-yl)-1H-indole-3-carboxamide] | 1.19
28 | O=C(Oc1ccc2ccncc2c1)c1cn(CCCCCF)c2ccccc12 [Example 340, isoquinolin-7-yl 1-(5-fluoropentyl)-1H-indole-3-carboxylate] | 1.18
29 | O=C(c1cccc2ccccc12)c1cn(CCCCCCF)c2ccccc12 [Example 341, (1-(6-fluorohexyl)-1H-indol-3-yl)(naphthalen-1-yl)methanone] | 1.18

Same assay, conditions: MHC-I expression, COLO 205 cells, compounds at 35 μM, 48 hours, flow cytometry (W6/32)

Row | SMILES | Induction Fold [Fold]
30 | O=C(Oc1cccc2cccnc12)c1nn(CCCCCF)c2ccccc12 [Example 311, 1-(5-fluoropentyl)-8-quinolinyl ester-1H-indazole-3-carboxylic acid] | 1.36
31 | O=C(NC12CC3CC(CC(C3)C1)C2)c1cn(CCCCCF)c2ccccc12 [Example 319, 1-(5-fluoropentyl)-N-tricyclo[3.3.1.13,7] dec-1-yl-1H-indole-3-carboxamide] | 1.31
32 | O=C(NC12CC3CC(CC(C3)C1)C2)c1nn(CCCCCCl)c2ccccc12 [Example 333, N-((3s,5s,7s)-adamantan-1-yl)-1-(5-chloropentyl)-1H-indazole-3-carboxamide] | 1.21
